Data from US10435408B2, “Azepine derivatives as 5-HT7 receptor modulators” (KOREA INSTITUTE OF SCIENCE AND TECHNOLOGY, priority 2016, dated 2019).

Molecular target: Human gene recombinant 5-HT7 receptor (Homo sapiens (Human), UniProt P34969)
Experiment: Measurement of binding affinity for serotonin 5-HT7 receptor ([3H]LSD radioligand binding)
Settings: [3H]LSD 1 nM, 5-HT7 receptor membrane from CHO cells; for inhibition at 10 µM: 10 μM compound; for Ki: nonlinear regression
Method: Human gene recombinant 5-HT7 receptor expressed in Chinese hamster ovary (CHO) cells was used. [^3H]LSD 1 nM, the 5-HT7 receptor membrane (15 μg/well), each of the samples of Example 1-20 at various concentrations, 10 mM MgCl2, and 50 mM Tris-HCl buffer (pH 7.4) containing 0.1 mM EDTA were added to a vessel until the final volume reached 0.25 ml. The reaction mixture was incubated at 25° C. for 90 min. The incubated reaction mixture was rapidly passed through a Whatman GF/C glass fiber filter, which had been previously soaked with 0.3% polyethyleneimine, using a Brandel-Harvester to quench the reaction and washed with cold 50 mM Tris-HCl buffer. The filter was covered with MeltiLex, sealed in a sample bag, and dried in an oven. The radioactivity retained in the filter was counted using MicroBeta (Wallac). Non-specific binding was determined in the presence of 0.5 μM Mianserin.

Human gene recombinant 5-HT7 receptor, sequence (P34969 whole entry): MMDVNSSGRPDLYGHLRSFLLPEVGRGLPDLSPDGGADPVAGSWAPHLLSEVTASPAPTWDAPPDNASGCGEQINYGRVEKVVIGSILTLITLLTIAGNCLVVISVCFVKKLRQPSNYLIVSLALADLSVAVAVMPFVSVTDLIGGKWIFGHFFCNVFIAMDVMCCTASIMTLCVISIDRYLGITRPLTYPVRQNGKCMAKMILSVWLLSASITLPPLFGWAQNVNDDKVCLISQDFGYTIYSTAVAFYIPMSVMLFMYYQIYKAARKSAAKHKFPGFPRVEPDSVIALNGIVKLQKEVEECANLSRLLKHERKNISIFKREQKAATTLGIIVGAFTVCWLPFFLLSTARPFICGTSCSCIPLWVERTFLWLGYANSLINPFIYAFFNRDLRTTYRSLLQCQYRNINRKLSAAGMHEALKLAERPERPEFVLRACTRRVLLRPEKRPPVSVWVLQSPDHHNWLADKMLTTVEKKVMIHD

Row | Compound | inhibition at 10 µM [%] | Ki [nM]
1 | c1ccc(-c2n[nH]c3c2CCNCC3)cc1 [Example 1, 3-phenyl-1,4,5,6,7,8-hexahydropyrazolo[3,4-d]azepine] | 84.2 | 322
2 | Cc1ccccc1-c1noc2c1CCNCC2 [Example 17, 3-(o-tolyl)-5,6,7,8-tetrahydro-4H-isoxazolo[4,5-d]azepine] | 41.8 | –
3 | Fc1cccc(-c2n[nH]c3c2CCNCC3)c1 [Example 3, 3-(3-fluorophenyl)-1,4,5,6,7,8-hexahydropyrazolo[3,4-d]azepine] | 72.9 | 1240
4 | Cc1ccc(-c2noc3c2CCNCC3)cc1 [Example 19, 3-(p-tolyl)-5,6,7,8-tetrahydro-4H-isoxazolo[4,5-d]azepine] | 96.3 | 16
5 | Fc1cccc(-c2noc3c2CCNCC3)c1 [Example 12, 3-(3-fluorophenyl)-5,6,7,8-tetrahydro-4H-isoxazolo[4,5-d]azepine] | 57.5 | 1410
6 | COc1ccccc1-c1noc2c1CCNCC2 [Example 20, 3-(2-methoxyphenyl)-5,6,7,8-tetrahydro-4H-isoxazolo[4,5-d]azepine] | 87.9 | 303
7 | Clc1cccc(-c2n[nH]c3c2CCNCC3)c1 [Example 5, 3-(3-chlorophenyl)-1,4,5,6,7,8-hexahydropyrazolo[3,4-d]azepine] | 79.2 | 883
8 | Clc1cccc(-c2noc3c2CCNCC3)c1 [Example 15, 3-(3-chlorophenyl)-5,6,7,8-tetrahydro-4H-isoxazolo[4,5-d]azepine] | 78.7 | 369
9 | Clc1ccc(-c2noc3c2CCNCC3)cc1 [Example 16, 3-(4-chlorophenyl)-5,6,7,8-tetrahydro-4H-isoxazolo[4,5-d]azepine] | 93.8 | 70
10 | Fc1ccc(-c2noc3c2CCNCC3)cc1 [Example 13, 3-(4-fluorophenyl)-5,6,7,8-tetrahydro-4H-isoxazolo[4,5-d]azepine] | 94.6 | 53
11 | Clc1ccccc1-c1n[nH]c2c1CCNCC2 [Example 4, 3-(2-chlorophenyl)-1,4,5,6,7,8-hexahydropyrazolo[3,4-d]azepine] | 88.7 | 386
12 | c1ccc(-c2noc3c2CCNCC3)cc1 [Example 10, 3-phenyl-5,6,7,8-tetrahydro-4H-isoxazolo[4,5-d]azepine] | 84.3 | 319
13 | Cc1cccc(-c2noc3c2CCNCC3)c1 [Example 18, 3-(m-tolyl)-5,6,7,8-tetrahydro-4H-isoxazolo[4,5-d]azepine] | 76.3 | 506
14 | Cc1ccccc1-c1n[nH]c2c1CCNCC2 [Example 7, 3-(o-tolyl)-1,4,5,6,7,8-hexahydropyrazolo[3,4-d]azepine] | 68.5 | 881
15 | Fc1ccccc1-c1n[nH]c2c1CCNCC2 [Example 2, 3-(2-fluorophenyl)-1,4,5,6,7,8-hexahydropyrazolo[3,4-d]azepine] | 78.9 | 714
16 | Cc1cccc(-c2n[nH]c3c2CCNCC3)c1 [Example 8, 3-(m-tolyl)-1,4,5,6,7,8-hexahydropyrazolo[3,4-d]azepine] | 63 | 1440
17 | Cc1ccc(-c2n[nH]c3c2CCNCC3)cc1 [Example 9, 3-(p-tolyl)-1,4,5,6,7,8-hexahydropyrazolo[3,4-d]azepine] | 94.2 | 47
18 | Clc1ccc(-c2n[nH]c3c2CCNCC3)cc1 [Example 6, 3-(4-chlorophenyl)-1,4,5,6,7,8-hexahydropyrazolo[3,4-d]azepine] | 96.4 | 30
19 | Clc1ccccc1-c1noc2c1CCNCC2 [Example 14, 3-(2-chlorophenyl)-5,6,7,8-tetrahydro-4H-isoxazolo[4,5-d]azepine] | 84.5 | 425
20 | Fc1ccccc1-c1noc2c1CCNCC2 [Example 11, 3-(2-fluorophenyl)-5,6,7,8-tetrahydro-4H-isoxazolo[4,5-d]azepine] | 77.9 | 366
